Assay results published in patent publication US20060258735A1, “1,3-Bis-(substituted-phenyl)-2-propen-1-ones and their use to treat VCAM-1 mediated disorders” (priority 2000, published 2006).
Like-named read-outs stand apart in the source and are kept apart here.

How the values were obtained:
VCAM-1 = assay: In vitro VCAM-1 assay (TNF stimulated vascular endothelial cells); assay type: cell-based; settings: Endothelial cell
Description: The ability of a compound described herein to inhibit the expression of VCAM-1 in a host can be assessed using any known method, including that described in detail below.
Two to four confluent P150 plates were trypsinized and the cells transferred to a 50 mL conical centrifuge tube. The cells were pelleted, resuspended and counted using the trypan blue exclusion method.
Cells were resuspended at a concentration of 36,000 cells/mL and 1 mL was aliquoted per well.
Cells were split into 24 well tissue culture plates. The cells in each well should be approximately 90-95% confluent by the following day. Cells should not be older than passage 8.
Compounds were initially screened at 50 μM and 10 μM. A 50 mM stock solution for each compound was prepared in culture medium. The stock solution was diluted to 5 mM and 1 mM. When 10 μL of the 5 mM solution was added to the well (1 mL medium/well), the final concentration was 50 μM. Adding 10 μL of the 1 mM solution to the well provides a final concentration of 10 μM.
Compounds which will not go into solution in culture medium were resuspended in DMSO at a concentration of 25 mM. The stock solution was then diluted to the final concentration in culture medium. The old medium was aspirated and 1 mL of the new medium with the compound was added. For example, if the final concentration was 50 μM, the 2 μL of the 25 mM stock was added per mL of culture medium. […] was diluted for lower concentrations.
The compounds were added to the plate (each compound is done in duplicate). One plate was prepared for VCAM expression and one plate was prepared for ICAM expression.
Immediately after the compounds weree added, TNF was added to each well 100 units/mL TNF was usually added to each well. Since each lot of TNF varies in the number of units, each new lot was titrated to determine the optimum concentration. Therefore this concentration changed. If 100 units/mL was being used, TNF was dilted to 10 units/μL and 10 μL added to each well.
The plates were incubated at 37° C., 5% CO2 overnight (approximately 16 hours). The next day the plates were checked under the microscope to see if there were any visual signs of toxicity. Records were made of any cell death, debris, or morphology changes, as well as insoluble compounds (particulate or turbity).
The degree of inhibition of the compounds of formula (I) was determined by the assays.

eosinophil recruitment = assay: Mouse peritonitis model (ovalbumin, eosinophil recruitment); assay type: in vivo; settings: 50 mg/kg/dose subcutaneous at -24, -2, +2 and +6 hrs around ovalbumin challenge; Balb/C mice; 48 hrs post-challenge; FIG. 2
Description: (§1) Balb/C mice (n=10) were sensitized to ovalbumin on days 0 and 7 with a subcutaneous injection of ovalbumin absorbed in aluminum hydroxide. They were then challenged with an intraperitoneal injection of ovalbumin and sacrificed 48 hrs post-challenge. Peritoneal fluid was then collected and spun down onto slides. Slides were stained with DiffQuik and a differential performed. The test compound was administered by subcutaneously injection −24, −2, +2 and +6 hrs around the time of ovalbumin challenge. This is a model of allergic inflammation as eosinophils are the major leukocyte recruited into the peritoneum.
as §1, with “compound wase” for “compound was”

paw edema = assay: Paw edema model (delayed type hypersensitivity, metBSA); assay type: in vivo; settings: 50 mg/kg/dose intraperitoneal at -24, -2 and +6 hrs around metBSA challenge; Balb/C mice; 24 hours after challenge; FIG. 3
Description: Balb/C mice (n=5) were sensitized intradermally on day 0 with methylated BSA (metBSA). They were then challenged with metBSA on day 7 in the right hind paw. The animals were sacrificed 24 hours later and the left and right hind paws weighed. The left hindpaw weight is subtracted from the right hind paw to give the paw weight increase. The test compound was administered by intraperitoneal injection −24, −2 and +6 hrs around the time of metBSA challenge.

MCP-1 = assay: In vitro MCP-1 activity assay (TNF-α stimulated endothelial cells, MCP-1 immunoassay); assay type: cell-based; settings: Endothelial cell; human endothelial cells stimulated with TNF-α (1 ng/ml), approximately 16 hours, MCP-1 immunoassay of culture media
Description: Cultured human endothelial cells were seeded in 96-well plates. On the following day cells were stimulated with TNF-α (1 ng/ml) in the presence or absence of compounds dissolved in DMSO. To establish a dose curve and IC50 for each compound, multiple concentrations in 2-fold increments were used. Cells were exposed to TNF-α and compounds for approximately 16 hours. The next day the cells were visually examined via light microscopy to score for visual signs of toxicity. Cell culture media, diluted 1:10, was analyzed by an MCP-1 immunoassay kit (R & D Systems). This assay is a sandwich immunoassay using immobilized anti-MCP-1 antibody in 96-well plate to capture secreted MCP-1 in cell culture media. Captured MCP-1 is subsequently detected with a horse radish peroxidase-conjugated anti-MCP-1 antibody for color development. Results are expressed as IC50 values (the amount of compound (µM) required to achieve a 50% reduction compared to control (cells stimulated with TNF-α only)).

[1] = system: human aortic smooth muscle cells; assay: In vitro smooth muscle cell activity assay (3H-thymidine incorporation, serum stimulated); assay type: cell-based; settings: human aortic smooth muscle cells stimulated with 5% serum
Description: Cultured human aortic smooth muscle cells were seeded in 24-well plates. When cells reached 80% confluency, they were made quiescent by changing media to 0.2% serum (as compared to 5% serum in normal culture media) for 48 hours. The cells were then stimulated by addition of 5% serum in the presence or absence of compounds dissolved in DMSO. To establish a dose curve and IC50 for each compound, multiple concentrations in 5-fold increments were used. After 20 hr incubation, 3H-thymidine (0.5 μCi/per well) was added to the cells for 4 hours of labeling. Washed cells were then lysed in NaOH and, the amount of 3H-thymidine incorporation was determined. Results are expressed as IC50 values (the amount of compound (µM) required to achieve a 50% reduction compared to control (cells stimulated with 5% serum only)).

[2] = TNF stimulated cells, overnight (approximately 16 hours), read-out: VCAM-1 IC50
[3] = degree of inhibition of VCAM-1 expression, TNF stimulated endothelial cells, approximately 16 hours, read-out: VCAM-1 (µM)

Structure (SMILES)	IC50 (MCP-1) [µM]	IC50 [1] [µM]	melting point	further results
COc1cc(C=CC(=O)c2cc(OC)c(OC)c(OC)c2)cc(Br)c1OC [3-(3-bromo-4,5-dimethoxyphenyl)-1-(3,4,5-trimethoxyphenyl)-2-propen-1-one]	–	–	–	IC50 (VCAM-1; [2]): 4 µM
COc1cc(OC)c(-c2cc3ccccc3s2)cc1/C=C/C(=O)c1cc(OC)c(OC)c(OC)c1 [3-[5-(benzo[b]thien-2-yl)-2,4-dimethoxyphenyl]-1-(3,4,5-trimethoxyphenyl)-2-propen-1-one]	–	–	–	inhibition of eosinophil recruitment (percent eosinophils in the peritoneal fluid) (eosinophil recruitment): inhibition of eosinophil recruitment; inhibition of paw edema (paw weight increase) (paw edema): inhibition of paw edema
COc1cc(OCC(=O)O)c(C=CC(=O)c2cc(OC)c(OC)c(OC)c2)cc1-c1cc2ccccc2s1 [3-[5-(benzo[b]thien-2-yl)-2-carboxymethoxy-4-methoxyphenyl]-1-(3,4,5-trimethoxyphenyl)-2-propen-1-one]	–	–	–	IC50 (VCAM-1; [2]): 8.3 µM
COc1ccc(-c2cccs2)cc1C=CC(=O)c1cc(OC)c(OC)c(OC)c1 [Example 7, 3-[2-methoxy-5-(thien-2-yl)phenyl]-1-(3,4,5-trimethoxyphenyl)-2-propen-1-one]	8	1.53	–	–
COc1ccc(-c2cccs2)cc1C=CC(=O)c1ccc(OC)c(OC)c1 [Example 9, 3-[2-methoxy-5-(thien-2-yl)phenyl]-1-(3,4-dimethoxyphenyl)-2-propen-1-one]	10	1.15	–	–
COc1cc(C=C2Cc3cc(-c4cccs4)ccc3C2=O)cc(OC)c1OC [Example 53]	–	–	216 to 222 °C	IC50 (VCAM-1; [3]): > 50 µM
COc1cc(OC)c(-c2cc3ccccc3s2)cc1C=CC(=O)c1cc(OC)c(OCC(=O)[O-])c(OC)c1.[Na+] [Example 61, 3-[5-(Benzo[b]thien-2-yl)-2,4-dimethoxyphenyl]-1-(4-carboxymethoxy-3,5-dimethoxyphenyl)-2-propen-1-one, sodium salt]	–	0.45	191 to 196 °C (dec.)	–

Second part, led by results:

IC50 (MCP-1) [µM]	IC50 [1] [µM]	melting point	Structure (SMILES)	further results
5	0.4	94 to 97 °C	COc1cc(C=CC(=O)c2ccc(OC)c(OC)c2OC)cc(-c2cccs2)c1OC [Example 2, 3-[3,4-dimethoxy-5-(thien-2-yl)phenyl]-1-(2,3,4-trimethoxyphenyl)-2-propen-1-one]	–
> 50	0.33	–	COc1cc(OC)c(-c2cc3ccccc3s2)cc1/C=C/C(=O)c1cc(OC)c(OC)c(OC)c1 [Example 6, 3-[5-(benzo[b]thien-2-yl)-2,4-dimethoxyphenyl]-1-(3,4,5-trimethoxyphenyl)-2-propen-1-one]	–
10	4.53	–	COc1ccc(C(=O)C=Cc2cc(-c3cccs3)ccc2OC)cc1 [Example 11, 3-[2-methoxy-5-(thien-2-yl)phenyl]-1-(4-methoxyphenyl)-2-propen-1-one]	–
–	–	192 to 205 °C	COc1cc2c(cc1OC)C(=O)C(=Cc1cc(OC)c(OC)c(-c3cccs3)c1)CC2 [Example 54]	IC50 (VCAM-1; [3]): 2 µM
–	–	164 to 172 °C	COc1ccc(-c2cccs2)cc1C=C1Cc2cc(OC)c(OC)cc2C1=O [Example 55]	IC50 (VCAM-1; [3]): > 50 µM
